In ChEMBL document CHEMBL4043168, “The design and SAR of a novel series of 2-aminopyridine based LRRK2 inhibitors” (Bioorg Med Chem Lett, 2017):

Key:
[1] = biological target: Cyclin-dependent kinase 5 (Homo sapiens) (UniProt Q00535); assay: Inhibition of CDK5 labeling at conserved Lys1 (NRETHEIVALKR) in human PBMC at 1 uM
[2] = biological target: Inhibitor of nuclear factor kappa-B kinase subunit alpha (Homo sapiens) (UniProt O15111); assay: Inhibition of IKKa conserved Lys2 (DLKPENIVLQDVGGK) in human PBMC at 1 uM
[3] = biological target: T1, Interleukin-1 receptor-associated kinase 4 (Homo sapiens) (UniProt Q9NWZ3); assay: Inhibition of IRAK4 conserved Lys1 (GYVNNTTVAVKK) in human PBMC at 1 uM
T1 sequence (whole entry): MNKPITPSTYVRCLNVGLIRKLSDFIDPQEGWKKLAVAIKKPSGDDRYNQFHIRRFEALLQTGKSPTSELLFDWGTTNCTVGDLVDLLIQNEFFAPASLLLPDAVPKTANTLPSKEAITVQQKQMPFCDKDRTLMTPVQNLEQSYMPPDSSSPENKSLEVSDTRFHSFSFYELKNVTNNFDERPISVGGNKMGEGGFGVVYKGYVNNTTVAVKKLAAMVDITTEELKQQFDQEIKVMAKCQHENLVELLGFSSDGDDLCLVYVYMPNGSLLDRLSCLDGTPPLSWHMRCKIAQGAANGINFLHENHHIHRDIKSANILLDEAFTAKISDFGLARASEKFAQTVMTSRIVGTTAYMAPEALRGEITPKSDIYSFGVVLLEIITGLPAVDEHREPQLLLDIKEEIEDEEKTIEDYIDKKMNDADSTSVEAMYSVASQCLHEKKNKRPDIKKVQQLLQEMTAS

[4] = biological target: Tyrosine-protein kinase JAK2 (Homo sapiens) (UniProt O60674); assay: Inhibition of JAK2 domain2 activation Loop (IGDFGLTKVLPQDKEYYK) in human PBMC at 1 uM
[5] = biological target: Serine/threonine-protein kinase 10 (Homo sapiens) (UniProt O94804); assay: Inhibition of LOK conserved Lys1 (NKETGALAAAKVIETK) in human PBMC at 1 uM
[6] = biological target: Mitogen-activated protein kinase kinase kinase 15 (Homo sapiens) (UniProt Q6ZN16); assay: Inhibition of MAP3K15 conserved Lys1 (IAIKEIPER) in human PBMC at 1 uM
[7] = biological target: MAP kinase-activated protein kinase 3 (Homo sapiens) (UniProt Q16644); assay: Inhibition of MAPKAPK3 ATP binding site (QVLGLGVNGKVLECFHR) in human PBMC at 1 uM
[8] = biological target: Ribosomal protein S6 kinase alpha-4 (Homo sapiens) (UniProt O75676); assay: Inhibition of MSK2 domain1 conserved Lys2 (DIKLENILLDSNGHVVLTDFGLSK) in human PBMC at 1 uM
[9] = biological target: Mitogen-activated protein kinase 12 (Homo sapiens) (UniProt P53778); assay: Inhibition of p38g conserved Lys2 (DLKPGNLAVNEDCELK) in human PBMC at 1 uM
[10] = biological target: Receptor-interacting serine/threonine-protein kinase 3 (Homo sapiens) (UniProt Q9Y572); assay: Inhibition of RIPK3 conserved Lys2 (DLKPSNVLLDPELHVK) in human PBMC at 1 uM
[11] = biological target: RAC-alpha serine/threonine-protein kinase (Homo sapiens) (UniProt P31749); assay: Inhibition of AKT1 labeling at ATP binding site (GTFGKVILVK) in human PBMC at 0.1 uM
[12] = biological target: Serine/threonine-protein kinase Chk2 (Homo sapiens) (UniProt O96017); assay: Inhibition of CHK2 labeling at conserved Lys2 (DLKPENVLLSSQEEDCLIK) in human PBMC at 0.1 uM
[13] = biological target: Tyrosine-protein kinase Fgr (Homo sapiens) (UniProt P09769); assay: Inhibition of FGR conserved Lys1 (LIKDDEYNPCQGSKFPIK) in human PBMC at 0.1 uM
[14] = biological target: Inhibitor of nuclear factor kappa-B kinase subunit alpha (Homo sapiens) (UniProt O15111); assay: Inhibition of IKKa conserved Lys2 (DLKPENIVLQDVGGK) in human PBMC at 0.1 uM
[15] = biological target: T1, Interleukin-1 receptor-associated kinase 4 (Homo sapiens); assay: Inhibition of IRAK4 conserved Lys2 (DIKSANILLDEAFTAK) in human PBMC at 0.1 uM
[16] = biological target: Tyrosine-protein kinase JAK1 (Homo sapiens) (UniProt P23458); assay: Inhibition of JAK1 domain1 (QLASALSYLEDKDLVHGNVCTKNLLLAR) in human PBMC at 0.1 uM
[17] = biological target: Serine/threonine-protein kinase 10 (Homo sapiens) (UniProt O94804); assay: Inhibition of LOK conserved Lys2 (DLKAGNVLMTLEGDIR) in human PBMC at 0.1 uM
[18] = biological target: Ribosomal protein S6 kinase alpha-5 (Homo sapiens) (UniProt O75582); assay: Inhibition of MSK1 domain1 conserved Lys2 (DIKLENILLDSNGHVVLTDFGLSK) in human PBMC at 0.1 uM
[19] = biological target: Serine/threonine-protein kinase 26 (Homo sapiens) (UniProt Q9P289); assay: Inhibition of MST4 conserved Lys2 (DIKAANVLLSEQGDVK) in human PBMC at 0.1 uM
[20] = biological target: Phosphatidylinositol 3-kinase catalytic subunit type 3 (Homo sapiens) (UniProt Q8NEB9); assay: Inhibition of PIK3C3 ATP binding site (TEDGGKYPVIFKHGDDLR) in human PBMC at 0.1 uM
[21] = biological target: STE20-like serine/threonine-protein kinase (Homo sapiens) (UniProt Q9H2G2); assay: Inhibition of SLK conserved Lys2 (DLKAGNILFTLDGDIK) in human PBMC at 0.1 uM
Chain of STE20-like serine/threonine-protein kinase (Homo sapiens) (Q9H2G2 whole entry, looked up): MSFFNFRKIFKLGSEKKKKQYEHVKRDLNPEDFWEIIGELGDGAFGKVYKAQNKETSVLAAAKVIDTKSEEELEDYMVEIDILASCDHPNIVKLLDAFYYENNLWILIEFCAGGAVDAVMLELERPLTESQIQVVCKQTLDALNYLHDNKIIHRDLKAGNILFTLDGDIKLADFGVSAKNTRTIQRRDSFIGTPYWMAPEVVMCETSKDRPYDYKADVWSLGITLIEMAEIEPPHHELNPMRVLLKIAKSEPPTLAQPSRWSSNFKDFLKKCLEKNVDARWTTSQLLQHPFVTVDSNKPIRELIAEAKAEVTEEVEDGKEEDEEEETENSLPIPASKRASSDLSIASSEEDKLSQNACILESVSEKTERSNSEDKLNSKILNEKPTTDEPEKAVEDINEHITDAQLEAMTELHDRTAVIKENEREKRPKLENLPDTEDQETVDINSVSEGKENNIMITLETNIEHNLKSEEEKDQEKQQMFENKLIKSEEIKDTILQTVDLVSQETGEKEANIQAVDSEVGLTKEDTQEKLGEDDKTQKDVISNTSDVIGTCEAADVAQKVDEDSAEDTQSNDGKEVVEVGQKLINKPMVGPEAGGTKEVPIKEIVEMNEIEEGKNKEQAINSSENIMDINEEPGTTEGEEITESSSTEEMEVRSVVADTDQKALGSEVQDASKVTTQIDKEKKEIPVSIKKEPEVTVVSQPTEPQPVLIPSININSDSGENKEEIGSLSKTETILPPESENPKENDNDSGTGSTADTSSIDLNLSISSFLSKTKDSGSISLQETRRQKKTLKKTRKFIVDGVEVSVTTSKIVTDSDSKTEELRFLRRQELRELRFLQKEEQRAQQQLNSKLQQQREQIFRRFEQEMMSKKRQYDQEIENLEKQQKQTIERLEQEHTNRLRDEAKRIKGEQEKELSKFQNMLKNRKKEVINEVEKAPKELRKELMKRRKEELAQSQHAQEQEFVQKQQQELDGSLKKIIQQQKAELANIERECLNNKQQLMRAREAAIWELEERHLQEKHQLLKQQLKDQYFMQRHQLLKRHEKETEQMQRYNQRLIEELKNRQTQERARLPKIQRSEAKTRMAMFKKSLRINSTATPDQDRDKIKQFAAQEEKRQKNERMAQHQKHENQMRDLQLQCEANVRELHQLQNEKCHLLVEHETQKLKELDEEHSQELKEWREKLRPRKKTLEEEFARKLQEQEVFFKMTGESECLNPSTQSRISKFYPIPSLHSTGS

Chain of Inhibitor of nuclear factor kappa-B kinase subunit alpha (Homo sapiens) (O15111 whole entry): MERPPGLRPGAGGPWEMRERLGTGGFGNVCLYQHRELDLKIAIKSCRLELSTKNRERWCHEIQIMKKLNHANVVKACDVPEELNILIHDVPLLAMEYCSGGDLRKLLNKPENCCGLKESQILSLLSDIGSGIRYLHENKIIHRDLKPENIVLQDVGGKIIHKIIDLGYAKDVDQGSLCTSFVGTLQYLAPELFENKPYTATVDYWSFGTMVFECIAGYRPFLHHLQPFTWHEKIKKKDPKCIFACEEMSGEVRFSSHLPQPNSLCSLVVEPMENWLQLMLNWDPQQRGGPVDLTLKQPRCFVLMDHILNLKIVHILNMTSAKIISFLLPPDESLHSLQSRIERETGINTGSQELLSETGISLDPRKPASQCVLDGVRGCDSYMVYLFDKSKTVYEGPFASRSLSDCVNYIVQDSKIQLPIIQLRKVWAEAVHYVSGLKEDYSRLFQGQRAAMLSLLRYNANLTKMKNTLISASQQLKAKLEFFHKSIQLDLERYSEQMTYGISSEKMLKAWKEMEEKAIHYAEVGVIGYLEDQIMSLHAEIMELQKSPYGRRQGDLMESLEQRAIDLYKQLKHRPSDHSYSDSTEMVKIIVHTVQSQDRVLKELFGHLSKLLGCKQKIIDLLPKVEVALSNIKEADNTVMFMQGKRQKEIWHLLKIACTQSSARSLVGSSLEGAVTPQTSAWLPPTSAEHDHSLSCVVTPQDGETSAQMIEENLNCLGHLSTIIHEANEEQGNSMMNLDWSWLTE
Chain of Serine/threonine-protein kinase 10 (Homo sapiens) (O94804 whole entry, looked up, the tested form may be a part): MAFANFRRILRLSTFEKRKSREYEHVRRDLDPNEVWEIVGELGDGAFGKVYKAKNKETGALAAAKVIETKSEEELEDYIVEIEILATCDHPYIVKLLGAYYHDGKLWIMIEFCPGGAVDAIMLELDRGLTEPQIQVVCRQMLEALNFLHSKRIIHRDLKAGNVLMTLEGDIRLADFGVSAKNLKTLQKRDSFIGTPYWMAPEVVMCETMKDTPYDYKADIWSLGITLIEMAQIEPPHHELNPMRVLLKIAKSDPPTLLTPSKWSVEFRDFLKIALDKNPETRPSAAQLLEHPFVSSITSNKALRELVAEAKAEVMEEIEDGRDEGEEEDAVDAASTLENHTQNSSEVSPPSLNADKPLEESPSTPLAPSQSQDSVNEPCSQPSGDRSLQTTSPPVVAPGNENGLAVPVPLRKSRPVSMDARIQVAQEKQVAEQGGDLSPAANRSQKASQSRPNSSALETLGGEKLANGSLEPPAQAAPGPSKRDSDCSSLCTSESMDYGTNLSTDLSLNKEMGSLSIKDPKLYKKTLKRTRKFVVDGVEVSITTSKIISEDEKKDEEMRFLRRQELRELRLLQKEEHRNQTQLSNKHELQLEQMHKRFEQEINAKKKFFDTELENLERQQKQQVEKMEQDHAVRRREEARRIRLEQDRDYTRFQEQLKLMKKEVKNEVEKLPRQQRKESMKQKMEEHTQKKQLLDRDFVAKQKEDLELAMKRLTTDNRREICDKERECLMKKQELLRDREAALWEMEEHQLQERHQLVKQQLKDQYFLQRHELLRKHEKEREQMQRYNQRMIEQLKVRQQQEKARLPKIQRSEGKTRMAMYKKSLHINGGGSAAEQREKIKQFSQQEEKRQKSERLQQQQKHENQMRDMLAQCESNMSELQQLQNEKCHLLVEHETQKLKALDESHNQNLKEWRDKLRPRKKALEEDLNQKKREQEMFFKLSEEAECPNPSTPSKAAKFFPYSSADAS
Chain of RAC-alpha serine/threonine-protein kinase (Homo sapiens) (P31749 whole entry): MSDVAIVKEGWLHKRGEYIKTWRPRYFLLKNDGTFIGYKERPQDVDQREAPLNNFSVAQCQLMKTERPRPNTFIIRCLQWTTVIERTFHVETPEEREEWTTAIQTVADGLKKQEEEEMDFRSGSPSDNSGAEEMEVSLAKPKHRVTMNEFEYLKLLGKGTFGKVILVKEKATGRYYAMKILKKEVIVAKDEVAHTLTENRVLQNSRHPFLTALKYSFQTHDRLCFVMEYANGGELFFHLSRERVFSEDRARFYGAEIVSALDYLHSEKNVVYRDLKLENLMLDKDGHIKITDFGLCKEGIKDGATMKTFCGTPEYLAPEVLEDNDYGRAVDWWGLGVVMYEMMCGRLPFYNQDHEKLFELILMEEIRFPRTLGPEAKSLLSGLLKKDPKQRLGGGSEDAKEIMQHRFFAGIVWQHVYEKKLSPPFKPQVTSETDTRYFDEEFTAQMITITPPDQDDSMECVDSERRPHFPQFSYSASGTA
Chain of Ribosomal protein S6 kinase alpha-4 (Homo sapiens) (O75676 whole entry, looked up, the tested form may be a part): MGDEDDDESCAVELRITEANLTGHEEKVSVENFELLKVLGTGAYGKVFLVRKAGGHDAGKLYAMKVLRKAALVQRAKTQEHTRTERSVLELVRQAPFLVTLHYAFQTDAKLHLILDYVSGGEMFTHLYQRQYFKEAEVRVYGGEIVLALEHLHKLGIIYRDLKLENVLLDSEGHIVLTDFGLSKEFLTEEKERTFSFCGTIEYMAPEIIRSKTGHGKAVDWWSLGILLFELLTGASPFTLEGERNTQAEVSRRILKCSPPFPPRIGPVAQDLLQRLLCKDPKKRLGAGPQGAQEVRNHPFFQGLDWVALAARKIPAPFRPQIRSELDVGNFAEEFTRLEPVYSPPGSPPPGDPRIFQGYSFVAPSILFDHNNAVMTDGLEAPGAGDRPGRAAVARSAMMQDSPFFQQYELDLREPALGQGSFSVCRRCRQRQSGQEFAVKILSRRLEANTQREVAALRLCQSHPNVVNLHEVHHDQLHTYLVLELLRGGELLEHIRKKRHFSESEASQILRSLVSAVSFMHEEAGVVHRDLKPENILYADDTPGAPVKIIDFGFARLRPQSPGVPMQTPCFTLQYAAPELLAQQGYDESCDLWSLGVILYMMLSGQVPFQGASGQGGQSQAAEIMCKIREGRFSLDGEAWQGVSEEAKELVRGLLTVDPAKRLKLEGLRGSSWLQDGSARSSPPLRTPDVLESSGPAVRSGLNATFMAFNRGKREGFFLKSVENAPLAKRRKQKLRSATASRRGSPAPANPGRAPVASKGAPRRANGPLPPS
Chain of Cyclin-dependent kinase 5 (Homo sapiens) (Q00535 whole entry, looked up): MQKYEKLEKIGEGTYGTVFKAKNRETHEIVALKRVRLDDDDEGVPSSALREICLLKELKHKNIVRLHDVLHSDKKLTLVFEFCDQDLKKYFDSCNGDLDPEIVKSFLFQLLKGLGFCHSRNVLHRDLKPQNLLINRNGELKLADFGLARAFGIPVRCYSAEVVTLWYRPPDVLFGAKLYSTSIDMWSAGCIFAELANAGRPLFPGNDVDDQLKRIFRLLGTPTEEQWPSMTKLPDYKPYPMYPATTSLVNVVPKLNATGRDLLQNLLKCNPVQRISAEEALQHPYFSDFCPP
Chain of Serine/threonine-protein kinase Chk2 (Homo sapiens) (O96017 whole entry): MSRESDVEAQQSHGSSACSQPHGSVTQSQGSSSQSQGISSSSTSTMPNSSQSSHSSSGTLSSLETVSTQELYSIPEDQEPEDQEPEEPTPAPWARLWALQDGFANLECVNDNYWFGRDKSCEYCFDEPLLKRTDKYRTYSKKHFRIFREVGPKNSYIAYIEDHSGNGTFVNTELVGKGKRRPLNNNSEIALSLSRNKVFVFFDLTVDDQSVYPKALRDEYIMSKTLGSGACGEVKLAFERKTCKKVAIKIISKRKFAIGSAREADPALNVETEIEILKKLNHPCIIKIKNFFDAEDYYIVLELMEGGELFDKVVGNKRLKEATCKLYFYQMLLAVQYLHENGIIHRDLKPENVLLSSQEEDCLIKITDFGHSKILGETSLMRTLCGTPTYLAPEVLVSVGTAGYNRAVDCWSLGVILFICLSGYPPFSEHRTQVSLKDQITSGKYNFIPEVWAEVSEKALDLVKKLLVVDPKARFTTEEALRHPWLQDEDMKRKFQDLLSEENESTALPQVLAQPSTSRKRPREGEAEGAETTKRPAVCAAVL

Structure (SMILES): CC(C)n1cc(-c2cc(-c3ccc(CN4CCOCC4)cc3)cnc2N)nn1
- inhibition [1]: 1.9%
- inhibition [2]: -1.2%
- inhibition [3]: 5%
- inhibition [4]: 5.2%
- inhibition [5]: 32.2%
- inhibition [6]: -3.3%
- inhibition [7]: 2.5%
- inhibition [8]: 10.3%
- inhibition [9]: 14%
- inhibition [10]: -7.3%
- inhibition [11]: 21%
- inhibition [12]: -4.8%
- inhibition [13]: 9.6%
- inhibition [14]: -7.4%
- inhibition [15]: -1.8%
- inhibition [16]: 16.4%
- inhibition [17]: 13.8%
- inhibition [18]: 33.6%
- inhibition [19]: 0.5%
- inhibition [20]: 14.1%
- inhibition [21]: 24.4%
